“Also recorded” adds a separate entry of the source.

Results on four molecules are retold here after patent US20260027126A1, “COMBINATION THERAPY FOR TREATING CANCERS” (GEISTLICH PHARMA AG, priority 2022, published 2026).

Data set [1] has as its system high-grade ovarian cancer cells (OVCAR8) labeled with luciferase gene. The experiment in a line: in vivo therapy experiment, orthotopic OVCAR8-L ovarian cancer mouse model. The arrangement: species or system mice. The note with it: GP-2250 500 mg/kg 3 times per week i.p., PARP inhibitor 50 mg/kg 5 times per week i.p., take down day 49. On the procedure:
FIG. 1 schematically illustrates the experimental design for in vivo testing of the GP-2250 and PARP inhibitors on OVCAR8-L mice. The experiment includes testing: vehicle control, Ringer's solution (10 mice, 200 μl, i.p.); 2) GP-2250 (10 mice, 500 mg/kg. 3 times per week, i.p.); 3) Olaparib (10 mice, 50 mg/kg, 5 times per week, i.p.); 4) the combination of GP-2250 and Olaparib; 5) Niraparib (10 mice, 50 mg/kg, 5 times per week, i.p.); 6) the combination of GP-2250 and Niraparib (10 mice): 7) Rucparib (10 mice, 50 mg/kg, 5 times per week, i.p.); 8) the combination of GP-2250 and Rucaparib . . .
Tumorigenicity of OVCAR8-L was determined using IVIS imaging. IVIS imaging following OCVAR8-L injection. 1×10^6 cells were injected through i.p., and then tumorigenicity was measured. All mice were injected with high-grade ovarian cancer cells (OVCAR8) labeled with luciferase gene by i.p. route.
(§1) In vivo model of ovarian cancer: Pharmacodynamic study and therapeutic experiment using OVCAR8 ovarian cancer model were performed.

Data set [2] deals with mTOR. The experiment in a line: in vivo pharmacodynamic experiment, OVCAR8 mouse model: mTOR. The note with it: dose of 500 mg/kg. On the procedure:
as §1
(§2) FIGS. 17A-17B show pharmacodynamics studies of GP-2250.

Data set [3] deals with ovarian cancer cell lines. Description: cytotoxic effect / cell viability assay in ovarian cancer cell lines. Type of data set: cell-based, Human. On the procedure: (§3) Human Ovarian cancer cell lines: A2780, Coav3, HeyA8, HeyA8-MDR, Kuramochi, OVCAR3, OVCAR5, OVCAR8, and SKOV3 were obtained and used in studies.
(§4) In vitro assays: Cell viability assay, Western blotting, Colony formation assay, Reverse-phase protein array, and Ultra-high resolution mass spectrometry analysis were performed.
as §1

In another data set the test system is HIF-1α. The experiment in a line: Reverse Phase Protein Array / Western blotting of ovarian cancer cells: HIF-1α. Type of data set: cell-based, Human. On the procedure: as §3, §4
Data set [4] deals with AKT. Description: Reverse Phase Protein Array / Western blotting of ovarian cancer cells: AKT. Type of data set: cell-based, Human. On the procedure: as §3, §4
A general note: A western blot detects proteins with antibodies after separation by electrophoresis.

For data set [5], the system named is AKT. The experiment in a line: in vivo pharmacodynamic experiment, OVCAR8 mouse model: AKT. The note with it: dose of 500 mg/kg. On the procedure: as §1, §2
The subject of data set [6] is mTOR. The experiment in a line: Reverse Phase Protein Array / Western blotting of ovarian cancer cells: mTOR. Type of data set: cell-based, Human. On the procedure: as §3, §4
Another data set deals with cancer cells. Description: glycolysis and ATP synthesis in cancer cells. Type of data set: cell-based, Human. On the procedure:
as §4

The target in the next data set is T1, hexokinase2 (Homo sapiens, UniProt P52789).
T1 construct: endogenous in cells; host or cells: human ovarian cancer cell lines
T1 sequence (P52789 1-917): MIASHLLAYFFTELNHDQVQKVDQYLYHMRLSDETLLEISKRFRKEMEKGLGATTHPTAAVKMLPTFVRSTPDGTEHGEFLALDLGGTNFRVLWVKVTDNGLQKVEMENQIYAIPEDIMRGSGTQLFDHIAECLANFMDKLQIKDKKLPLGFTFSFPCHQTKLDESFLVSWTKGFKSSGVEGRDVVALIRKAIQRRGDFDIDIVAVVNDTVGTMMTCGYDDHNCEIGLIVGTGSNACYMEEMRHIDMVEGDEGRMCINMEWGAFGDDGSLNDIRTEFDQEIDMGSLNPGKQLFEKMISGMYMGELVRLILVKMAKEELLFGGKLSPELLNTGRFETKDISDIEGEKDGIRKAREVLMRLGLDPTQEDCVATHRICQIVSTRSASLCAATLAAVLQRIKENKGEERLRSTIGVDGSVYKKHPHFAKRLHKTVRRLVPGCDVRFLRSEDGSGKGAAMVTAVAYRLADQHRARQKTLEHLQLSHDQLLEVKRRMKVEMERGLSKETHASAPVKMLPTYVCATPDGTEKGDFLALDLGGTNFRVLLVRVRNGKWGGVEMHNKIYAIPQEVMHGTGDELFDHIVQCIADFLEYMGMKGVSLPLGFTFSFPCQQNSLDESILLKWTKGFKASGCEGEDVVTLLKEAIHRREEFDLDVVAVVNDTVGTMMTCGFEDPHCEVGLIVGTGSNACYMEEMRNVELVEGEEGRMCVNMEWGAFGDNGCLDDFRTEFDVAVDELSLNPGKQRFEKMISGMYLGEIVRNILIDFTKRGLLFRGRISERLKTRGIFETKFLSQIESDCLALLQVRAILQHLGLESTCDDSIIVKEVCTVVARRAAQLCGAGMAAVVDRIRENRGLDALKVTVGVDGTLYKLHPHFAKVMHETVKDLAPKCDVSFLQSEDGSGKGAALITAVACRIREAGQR
Description: hexokinase2 activity and expression (ultra-high resolution mass spectrometry analysis, FIG. 16). It is filed as cell-based. The note with it: GP-2250 treatment of cancer cells. On the procedure:
as §3, §4

A short description of a further data set: solubility. It is filed as physicochemical.
Where [7] appears, read: Western blot, ovarian cancer cells treated for 24 hours.

Take `NC(=O)c1cccc2cn(-c3ccc([C@@H]4CCCNC4)cc3)nc12` [niraparib]: in [1], the “tumor nodules (number)” value was 3.4±0.44 and the tumor weight was determined as 0.38 ± 0.05 g.

Take `O=C(c1cc(Cc2n[nH]c(=O)c3ccccc23)ccc1F)N1CCN(C(=O)C2CC2)CC1` [olaparib]: in [1], the “tumor nodules (number)” value was 3.3±0.64 and the tumor weight was 0.53 ± 0.09 g.

For `O=S1(=O)CCOCN1` [GP-2250], in [1], the “tumor nodules (number)” value was found to be 2.9±0.48 and the tumor weight turned out to be 2.9 ± 0.48 g. Moreover, the “downregulation of mTOR activation and expression” value with mTOR [2] is listed as “most effective”. The “cytotoxic effect: vulnerability of HRD versus HRP ovarian cancer cells” value in data set [3] (HRD cells (Kuramochi, OVCAR4, OVCAR8) compared with HRP cells (A2780, OVCAR5), both vulnerable) is on record as “more vulnerable”. Also, in data set [3] (ovarian cancer cells), the apoptosis entry was “increased apoptosis” and the proliferation result is on record as “reduced proliferation”. The “hypoxia-inducible factor-1a activation and expression level” value with HIF-1α (RPPA analyses) is given as “inhibited”. In addition, the HIF-1α expression entry with HIF-1α (setting [7]) is recorded as “inhibits”. Moreover, the “AKT activation and expression level” value in the data set with AKT [4] (RPPA analyses) was “inhibited”. Besides, the AKT expression entry in the data set with AKT [4] (setting [7]) is “inhibits”. Also, the “downregulation of AKT activation and expression” value in the data set with AKT [5] is recorded as “most effective”. Further, the “mTOR activation and expression level” value with mTOR [6] (RPPA analyses) is given as “inhibited”. For the same molecule, the mTOR expression entry in the data set on mTOR [6] (setting [7]) is “inhibits”. Besides, in the data set on cancer cells, the ATP synthesis result is given as “reduced” and the glycolysis entry is “decreases; also recorded: reduced”. In addition, the “hexokinase2 activity and expression” value on hexokinase2 is given as “inhibition; also recorded: significantly reduced”.

As to `CNCc1ccc(-c2[nH]c3cc(F)cc4c3c2CCNC4=O)cc1` [rucaparib], in data set [1], the “tumor nodules (number)” value was found to be 4.85±0.79 and the tumor weight was 0.52 ± 0.1 g. Further, the solubility entry in the data set “solubility” is on record as “relatively poor solubility”.
